Experimental data: PubChem BioAssay AID2060900 (Molecular Pharmacology Branch, DTP, NCI, 2025)
One block for each compound: values may come before it.

Tested on: 521955-158-R2-J5-PDC complex spheroids, viability
Assay: Anticancer human tumor 521955-158-R2-J5-PDC patient-derived pancreatic carcinoma cell line growth inhibition [RAS]
Details: for IC50: curve of first compound; for viability, T/C: stronger effect = lower value
In short: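 Agents were tested in combination matrices in half-log decrements from a top concentration at or near clinical Cmax (10 microM if undetermined). Targets were multi-cell spheroids of tumour lines plus HUVEC and MSC stromal cells.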

[1] = second compound 0.00316 µM, first compound 0.0316 µM
[2] = second compound 0.00316 µM, first compound 0.1 µM
[3] = second compound 0.00316 µM, first compound 0.316 µM
[4] = second compound 0.00316 µM, first compound 1 µM
[5] = second compound 0.01 µM, first compound 0.0316 µM
[6] = second compound 0.01 µM, first compound 0.1 µM
[7] = second compound 0.01 µM, first compound 0.316 µM
[8] = second compound 0.01 µM, first compound 1 µM
[9] = second compound 0.0316 µM, first compound 0.0316 µM
[10] = second compound 0.0316 µM, first compound 0.1 µM
[11] = second compound 0.0316 µM, first compound 0.316 µM
[12] = second compound 0.0316 µM, first compound 1 µM
[13] = second compound 0.1 µM, first compound 0.0316 µM
[14] = second compound 0.1 µM, first compound 0.1 µM
[15] = second compound 0.1 µM, first compound 0.316 µM
[16] = second compound 0.1 µM, first compound 1 µM
[17] = second compound 0.316 µM, first compound 0.0316 µM
[18] = second compound 0.316 µM, first compound 0.1 µM
[19] = second compound 0.316 µM, first compound 0.316 µM
[20] = second compound 0.316 µM, first compound 1 µM
[21] = second compound 1 µM, first compound 0.0316 µM
[22] = second compound 1 µM, first compound 0.1 µM
[23] = second compound 1 µM, first compound 0.316 µM
[24] = second compound 1 µM, first compound 1 µM
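Note: compound exposure lasted seven days before the viability read.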
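Throughout, for viability, T/C: spheroids also contain HUVEC endothelial cells and mesenchymal stem cells as stroma.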

- IC50 (second compound 0.00316 µM): 970 nM
- IC50 (second compound 0.01 µM): 898 nM
- IC50 (second compound 0.0316 µM): > 1000 nM
- IC50 (second compound 0.1 µM): 757 nM
- IC50 (second compound 0.316 µM): 636 nM
- IC50 (second compound 1 µM): 757 nM
Structure (SMILES): C=CC(=O)Nc1cc(Nc2nccc(-c3cn(C)c4ccccc34)n2)c(OC)cc1N(C)CCN(C)C + C=CC(=O)N1CCN(c2nc(OCC3CCCN3C)nc3c(F)c(-c4nc(N)cc(C)c4C(F)(F)F)c(Cl)cc23)C(C)C1
- viability, T/C (second compound 0.00316 µM, first compound 0.00316 µM): 106%
- viability, T/C (second compound 0.00316 µM, first compound 0.01 µM): 78.6%
- viability, T/C [1]: 90.5%
- viability, T/C [2]: 81.2%
- viability, T/C [3]: 86.4%
- viability, T/C [4]: 48.9%
- viability, T/C (second compound 0.01 µM, first compound 0.00316 µM): 87.8%
- viability, T/C (second compound 0.01 µM, first compound 0.01 µM): 63.4%
- viability, T/C [5]: 77.8%
- viability, T/C [6]: 108%
- viability, T/C [7]: 74.1%
- viability, T/C [8]: 47.5%
- viability, T/C (second compound 0.0316 µM, first compound 0.00316 µM): 80.1%
- viability, T/C (second compound 0.0316 µM, first compound 0.01 µM): 63.5%
- viability, T/C [9]: 96.5%
- viability, T/C [10]: 107%
- viability, T/C [11]: 68.1%
- viability, T/C [12]: 50.4%
- viability, T/C (second compound 0.1 µM, first compound 0.00316 µM): 68.1%
- viability, T/C (second compound 0.1 µM, first compound 0.01 µM): 81.4%
- viability, T/C [13]: 74.8%
- viability, T/C [14]: 85.3%
- viability, T/C [15]: 73.6%
- viability, T/C [16]: 42.2%
- viability, T/C (second compound 0.316 µM, first compound 0.00316 µM): 121%
- viability, T/C (second compound 0.316 µM, first compound 0.01 µM): 82.2%
- viability, T/C [17]: 95.9%
- viability, T/C [18]: 70.1%
- viability, T/C [19]: 67.8%
- viability, T/C [20]: 39%
- viability, T/C (second compound 1 µM, first compound 0.00316 µM): 106%
- viability, T/C (second compound 1 µM, first compound 0.01 µM): 72.8%
- viability, T/C [21]: 78.7%
- viability, T/C [22]: 73.9%
- viability, T/C [23]: 64%
- viability, T/C [24]: 42.1%

- IC50 (second compound 0.00316 µM): > 10000 nM
- IC50 (second compound 0.01 µM): > 10000 nM
- IC50 (second compound 0.0316 µM): > 10000 nM
- IC50 (second compound 0.1 µM): > 10000 nM
- IC50 (second compound 0.316 µM): > 10000 nM
- IC50 (second compound 1 µM): > 10000 nM
Structure (SMILES): CC(C)NCC(C(=O)N1CCN(c2ncnc3c2C(C)CC3O)CC1)c1ccc(Cl)cc1 (centres undefined) + C=CC(=O)N1CCN(c2nc(OCC3CCCN3C)nc3c(F)c(-c4nc(N)cc(C)c4C(F)(F)F)c(Cl)cc23)C(C)C1
- viability, T/C [1]: 95.9%
- viability, T/C [2]: 93.2%
- viability, T/C [3]: 99%
- viability, T/C [4]: 79.7%
- viability, T/C (second compound 0.00316 µM, first compound 3.16 µM): 66.4%
- viability, T/C (second compound 0.00316 µM, first compound 10 µM): 54.6%
- viability, T/C [5]: 77%
- viability, T/C [6]: 115%
- viability, T/C [7]: 95.6%
- viability, T/C [8]: 92.9%
- viability, T/C (second compound 0.01 µM, first compound 3.16 µM): 69.1%
- viability, T/C (second compound 0.01 µM, first compound 10 µM): 55%
- viability, T/C [9]: 84.1%
- viability, T/C [10]: 101%
- viability, T/C [11]: 91.8%
- viability, T/C [12]: 94.7%
- viability, T/C (second compound 0.0316 µM, first compound 3.16 µM): 61.2%
- viability, T/C (second compound 0.0316 µM, first compound 10 µM): 55.1%
- viability, T/C [13]: 88.7%
- viability, T/C [14]: 104%
- viability, T/C [15]: 113%
- viability, T/C [16]: 89%
- viability, T/C (second compound 0.1 µM, first compound 3.16 µM): 67.1%
- viability, T/C (second compound 0.1 µM, first compound 10 µM): 49.6%
- viability, T/C [17]: 105%
- viability, T/C [18]: 138%
- viability, T/C [19]: 92.4%
- viability, T/C [20]: 72.1%
- viability, T/C (second compound 0.316 µM, first compound 3.16 µM): 59.6%
- viability, T/C (second compound 0.316 µM, first compound 10 µM): 49.9%
- viability, T/C [21]: 103%
- viability, T/C [22]: 80.2%
- viability, T/C [23]: 104%
- viability, T/C [24]: 71.3%
- viability, T/C (second compound 1 µM, first compound 3.16 µM): 61.9%
- viability, T/C (second compound 1 µM, first compound 10 µM): 55.3%
